Assay results as given in patent publication EP0938471B1, “THE PREPARATION AND USE OF ORTHO-SULFONAMIDO ARYL HYDROXAMIC ACIDS AS MATRIX METALLOPROTEINASE AND TACE INHIBITORS” (priority 1996, dated 1998).
pIC50: −log10 of the molar value. Structures can show the parent of a compound that is named as a salt. Where two headings read alike, the source gives them in different places.

Columns and labels:
Assay type in all cases: biochemical
[1] = molecular target: T1, MMP-1 (Homo sapiens, UniProt P03956); assay: MMP-1 inhibition (thiopeptide or fluorescent peptide substrate assay); conditions: read-out: MMP-1 IC50
T1 sequence (P03956 100-469): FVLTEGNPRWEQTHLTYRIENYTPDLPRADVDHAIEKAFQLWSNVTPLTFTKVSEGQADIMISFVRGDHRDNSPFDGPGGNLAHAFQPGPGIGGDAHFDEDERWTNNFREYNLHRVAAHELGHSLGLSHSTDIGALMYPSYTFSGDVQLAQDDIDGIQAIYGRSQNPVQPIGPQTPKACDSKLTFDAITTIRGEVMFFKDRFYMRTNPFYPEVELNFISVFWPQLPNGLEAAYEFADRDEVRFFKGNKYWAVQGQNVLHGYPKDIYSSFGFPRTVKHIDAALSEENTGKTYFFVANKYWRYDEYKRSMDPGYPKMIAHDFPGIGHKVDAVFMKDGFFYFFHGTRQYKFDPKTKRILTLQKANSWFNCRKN

[2] = molecular target: MMP-9 (Homo sapiens, UniProt P14780); assay: MMP-9 inhibition (thiopeptide or fluorescent peptide substrate assay)
Sequence of MMP-9 (P14780 94-707): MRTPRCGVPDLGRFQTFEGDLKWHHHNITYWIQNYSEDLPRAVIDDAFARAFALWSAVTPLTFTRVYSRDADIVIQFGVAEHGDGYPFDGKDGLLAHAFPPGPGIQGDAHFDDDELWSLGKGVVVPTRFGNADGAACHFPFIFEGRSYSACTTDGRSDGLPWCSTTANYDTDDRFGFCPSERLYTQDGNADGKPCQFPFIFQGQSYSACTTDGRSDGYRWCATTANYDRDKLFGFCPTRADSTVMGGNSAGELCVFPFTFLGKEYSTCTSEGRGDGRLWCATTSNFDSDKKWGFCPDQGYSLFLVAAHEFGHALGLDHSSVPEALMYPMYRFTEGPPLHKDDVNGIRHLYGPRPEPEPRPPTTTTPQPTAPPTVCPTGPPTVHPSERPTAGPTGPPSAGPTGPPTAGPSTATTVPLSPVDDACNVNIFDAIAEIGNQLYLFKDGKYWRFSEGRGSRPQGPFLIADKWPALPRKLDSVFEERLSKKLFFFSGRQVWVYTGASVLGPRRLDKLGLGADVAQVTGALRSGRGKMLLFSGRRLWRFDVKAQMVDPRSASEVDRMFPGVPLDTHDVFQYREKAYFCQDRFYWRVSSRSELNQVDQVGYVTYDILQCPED
Procedure: (§1) The enzyme activity is measured by the rate of the color increase. The thiopeptide substrate is made up fresh as a 20 mM stock in 100% DMSO and the DTNB is dissolved in 100% DMSO as a 100 mM stock and stored in the dark at room temperature. Both the substrate and DTNB are diluted together to 1 mM with substrate buffer (50 mM HEPES pH 7.5, 5 mM CaCl2) before use. […] Alternatively, a fluorescent peptide substrate is used. In this assay, the peptide substrate contains a fluorescent group and a quenching group. Upon cleavage of the substrate by an MMP, the fluorescence that is generated is quantitated on the fluorescence plate reader. […] The substrate is dissolved in methanol and stored frozen in 1 mM aliquots. For the assay, substrate and enzymes are diluted in HCBC buffer to the desired concentrations. Compounds are added to the 96 well plate containing enzyme and the reaction is started by the addition of substrate. […] For either the thiopeptide or fluorescent peptide assays, the slope of the line is calculated and represents the reaction rate. […] The mean (x±sem) of the control rate is calculated and compared for statistical significance (p<0.05) with drug-treated rates using Dunnett's multiple comparison test.

[3] = molecular target: TACE (Homo sapiens, UniProt P78536); assay: TACE inhibition (fluorescent peptidyl substrate)
Sequence of TACE (P78536 215-824): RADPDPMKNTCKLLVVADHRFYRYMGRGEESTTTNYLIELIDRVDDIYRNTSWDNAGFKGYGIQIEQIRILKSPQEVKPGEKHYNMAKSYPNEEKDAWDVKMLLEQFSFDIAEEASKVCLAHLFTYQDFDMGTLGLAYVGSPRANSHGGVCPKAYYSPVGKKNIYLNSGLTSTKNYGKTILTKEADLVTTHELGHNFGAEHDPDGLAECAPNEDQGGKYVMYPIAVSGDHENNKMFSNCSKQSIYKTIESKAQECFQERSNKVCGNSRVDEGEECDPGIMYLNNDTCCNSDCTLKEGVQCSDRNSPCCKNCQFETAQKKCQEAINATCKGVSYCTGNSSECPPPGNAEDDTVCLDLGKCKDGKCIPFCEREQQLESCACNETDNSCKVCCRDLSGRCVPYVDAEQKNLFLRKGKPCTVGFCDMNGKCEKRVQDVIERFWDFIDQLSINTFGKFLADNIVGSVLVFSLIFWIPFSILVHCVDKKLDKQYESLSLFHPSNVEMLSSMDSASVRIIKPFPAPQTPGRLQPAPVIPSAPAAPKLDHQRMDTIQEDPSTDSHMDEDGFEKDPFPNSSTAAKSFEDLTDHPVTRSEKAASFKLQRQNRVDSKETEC

[4] = molecular target: MMP-13 (Homo sapiens, UniProt P45452); assay: MMP-13 inhibition (thiopeptide or fluorescent peptide substrate assay)
Procedure: as §1

Compound	pIC50 [1]	pIC50 ([2]; read-out: MMP-9 IC50)	pIC50 ([3]; read-out: TACE IC50)	pIC50 [2]	pIC50 [4]	pIC50 ([4]; read-out: MMP-13 IC50)	pIC50 [3]
3-Methyl-2-[4-(pyridin-4-yloxy)-benzensulfonylamino]-N-hydroxy-benzamide [Example 417]	5.49	8.17	–	–	–	–	–
COc1ccc(S(=O)(=O)N(Cc2ccccc2)c2ccccc2C(=O)NO)cc1 [Example 23, 2-[Benzyl-(4-methoxy-benzenesulfonyl)-amino]-N-hydroxy-benzamide]	6.19	–	< 6.00	6.19	–	–	–
COc1ccc(S(=O)(=O)N(Cc2ccccc2)c2c(Cl)cccc2C(=O)NO)cc1 [Example 24, 2-[Benzyl-(4-methoxy-benzenesulfonyl)-amino]-3-chloro-N-hydroxy-benzamide]	6.40	7.51	–	–	–	–	–
COc1ccc(S(=O)(=O)N(Cc2ccccc2)c2c(C)cccc2C(=O)NO)cc1 [Example 28, 2-[Benzyl-(4-methoxy-benzenesulfonyl)-amino]-N-hydroxy-3-methyl-benzamide]	–	–	6.34	–	7.30	–	–
COc1ccc(S(=O)(=O)N(Cc2ccccc2)c2c(OCC(=O)NO)cccc2C(=O)NO)cc1 [Example 54, 2-[Benzyl-(4-methoxy-benzenesulfonyl)-amino]-N-hydroxy-3-hydroxycarbamoylmethoxy-benzamide]	7.62	8.52	–	–	8.40	–	–
CCCCC#Cc1cc(C)c(N(Cc2ccccc2)S(=O)(=O)c2ccc(OC)cc2)c(C(=O)NO)c1 [Example 77, 2-[Benzyl-(4-methoxy-benzenesulfonyl)-amino]-5-hex-1-ynyl-N-hydroxy-3-methyl-benzamide]	–	6.88	–	–	–	–	–
COc1ccc(S(=O)(=O)N(Cc2cccnc2)c2ccccc2C(=O)NO)cc1 [Example 85, N-Hydroxy-2-[(4-methoxy-benzenesulfonyl)-pyridin-3-ylmethyl-amino]-benzamide]	–	6.18	< 6.00	–	–	–	–
COc1ccc(S(=O)(=O)N(Cc2ccccc2)c2c(OC)cccc2C(=O)NO)cc1 [Example 101, 2-[Benzyl-(4-methoxy-benzenesulfonyl)-amino]-N-hydroxy-3-methoxy-benzamide]	6.57	–	6.37	7.64	–	–	–
COc1ccc(S(=O)(=O)N(Cc2ccccc2)c2c(C(=O)NO)ccc(Cl)c2C)cc1 [Example 102, 2-[Benzyl-(4-methoxy-benzenesulfonyl)-amino]-4-chloro-N-hydroxy-3-methyl-benzamide]	6.50	7.54	6.79	–	–	–	–
COc1ccc(S(=O)(=O)N(Cc2ccccc2)c2c(C(=O)NO)cccc2C(F)(F)F)cc1 [Example 125, 2-[Benzyl-(4-methoxy-benzenesulfonyl)-amino]-N-hydroxy-3-trifluoromethyl-benzamide]	< 6.00	–	6.52	–	6.87	–	–
COc1ccc(S(=O)(=O)N(Cc2ccccc2)c2c(C(=O)NO)cc(OC)c(OC)c2OC)cc1 [Example 156, 2-[Benzyl-(4-methoxy-benzenesulfonyl)-amino]-N-hydroxy-3,4,5-trimethoxy-benzamide]	< 6.00	6.98	–	–	–	6.87	–
COc1ccc(S(=O)(=O)N(Cc2cccnc2)c2c(C(=O)NO)cc(OC)c(OC)c2OC)cc1 [Example 158, N-Hydroxy-3,4,5-trimethoxy-2-[(4-methoxy-benzenesulfonyl)-pyridin-3-ylmethyl-amino]-benzamide]	< 6.00	7.96	–	–	–	7.21	–
COc1ccc(S(=O)(=O)N2CCCOc3cccc(C(=O)NO)c32)cc1 [Example 165, 5-(4-Methoxy-benzenesulfonyl)-2,3,4,5-tetrahydro-1,5-benzoxazepine-6-carboxylic acid hydroxyamide]	–	6.54	–	–	–	6.46	–
COc1ccc(S(=O)(=O)N2Cc3ccccc3COc3cccc(C(=O)NO)c32)cc1 [Example 166, 12-(4-Methoxy-benzenesulfonyl)-11,12-dihydro-6H-dibenz[b,f][1,4]oxazocine-1-carboxylic acid hydroxyamide]	–	6.69	–	–	–	< 6.52	–
COc1ccc(S(=O)(=O)N2CCCCOc3cccc(C(=O)NO)c32)cc1 [Example 167, 6-(4-Methoxy-benzenesulfonyl)-3,4,5,6-tetrahydro-2H-1,6-benzoxazocine-7-carboxylic acid hydroxyamide]	–	7.38	–	–	–	6.75	–
COc1ccc(S(=O)(=O)N(C)c2c(CN3CCN(C)CC3)cccc2C(=O)NO)cc1 [Example 194, N-Hydroxy-2-[(4-methoxybenzenesulfonyl)-methylamino]-3-(4-methylpiperazin-1-ylmethyl)-benzamide]	6.51	–	6.81	–	–	7.92	–
CCCOc1ccc(S(=O)(=O)N(Cc2ccccc2)c2c(C)cc(C)cc2C(=O)NO)cc1 [Example 303, 2-[Benzyl-(4-propoxy-benzenesulfonyl)-amino]-N-hydroxy-3,5-dimethyl-benzamide]	5.56	7.19	–	–	–	6.98	–
COC(=O)c1cccc(C(=O)NO)c1N(Cc1cccnc1)S(=O)(=O)c1ccc(OC)cc1 [Example 369, N-Hydroxy-2-[(4-methoxy-benzenesulfonyl)-pyridin-3-ylmethyl-amino]-isophthalamic acid methyl ester]	6.68	8.19	–	–	–	–	7.42
COc1ccc(S(=O)(=O)N(Cc2ccc(N3CCN(C)CC3)cc2)c2c(C)cccc2C(=O)NO)cc1 [Example 382, N-Hydroxy-2-{(4-methoxy-benzenesulfonyl)-[4-(4-methyl-piperazin-1-yl)-benzyl]-amino}-3-methyl-benzamide]	–	8.19	–	–	7.70	–	6.84
COc1ccc(S(=O)(=O)N(Cc2cccnc2)c2c(C)cc(-c3ccccc3)cc2C(=O)NO)cc1 [Example 397, 4-[(4-Methoxy-benzenesulfonyl)-pyridin-3-ylmethyl-amino]-5-methyl-biphenyl-3-carboxylic acid hydroxyamide hydrochloride salt]	–	–	–	8.52	–	–	7.19
COc1ccc(S(=O)(=O)N(Cc2cccnc2)c2c(C)cc(-c3ccsc3)cc2C(=O)NO)cc1 [Example 398, N-Hydroxy-2-[(4-methoxy-benzenesulfonyl)-pyridin-3-ylmethyl-amino]-3-methyl-5-thiophen-3-yl-benzamide hydrochloride salt]	7.07	8.70	7.25	–	–	–	–
COc1ccc(S(=O)(=O)N(Cc2cccnc2)c2c(C)cc(-c3cccc(C(F)(F)F)c3)cc2C(=O)NO)cc1 [Example 406, 4-[(4-Methoxy-benzenesulfonyl)-pyridin-3-ylmethyl-amino]-5-methyl-3'-trifluoromethyl-biphenyl-3-carboxylic acid hydroxyamide hydrochloride salt]	–	8.96	–	–	–	–	–
Cc1cccc(C(=O)NO)c1N(Cc1ccc(Cl)cc1)S(=O)(=O)c1ccc(-c2ccccn2)s1 [Example 407, 2-[(4-Chloro-benzyl)-(5-pyridin-2-yl-thiophene-2-sulfonyl)-amino]-N-hydroxy-3-methyl-benzamide]	5.77	6.70	–	–	–	7.46	–
Cc1ccc(CN(c2c(C)cccc2C(=O)NO)S(=O)(=O)c2ccc(-c3ccccn3)s2)cc1C [Example 408, 2-[(3,4-Dimethyl-benzyl)-(5-pyridin-2-yl-thiophene-2-sulfonyl)-amino]-N-hydroxy-3-methyl-benzamide]	5.46	6.14	–	–	–	6.83	–
